In patent publication US20130203591A1, “PESTICIDAL MIXTURES INCLUDING ISOXAZOLINE DERIVATIVES” (SYNGENTA CROP PROTECTION LLC, priority 2010, published 2013):

Columns and labels:
Assay type in all cases: cell-based
[1] = system: Mycosphaerella arachidis (syn. Cercospora arachidicola); test: Mycosphaerella arachidis (brown leaf spot of groundnut) growth inhibition in nutrient broth, microtiter plate
Description: Mycosphaerella arachidis (syn. Cercospora arachidicola), Brown Leaf Spot of Groundnut (Peanut):
(§1) Conidia of the fungus from cryogenic storage were directly mixed into nutrient broth (potato dextrose broth). After placing a (DMSO) solution of the test compounds into a microtiter plate (96-well format) the nutrient broth containing the fungal spores was added. The test plates were incubated at 24° C. and the inhibition of growth was determined photometrically after approximately 5-6 days at 620 nm.

Botrvtis cinerea = test: Botrytis cinerea (gray mould) growth inhibition in nutrient broth, microtiter plate
Description: Botrvtis cinerea (Gray Mould):
as §1, with “72 hours.” for “approximately 5-6 days at 620 nm.”

Fusarium culmorum = Fusarium culmorum (root rot) growth inhibition in nutrient broth, microtiter plate; details: for AVERAGE DEAD IN % Epoxiconazole: Epoxiconazole alone; for AVERAGE DEAD IN % Epoxiconazole / AVERAGE DEAD IN % COMPOUND I-A2: 48 hrs, 24° C.; for AVERAGE DEAD IN % COMPOUND I-A2: COMPOUND I-A2 alone
Description: Fusarium culmorum (Root Rot):
as §1, with “48 hrs.” for “approximately 5-6 days at 620 nm.”

Septoria tritici = Septoria tritici (leaf blotch) growth inhibition in nutrient broth, microtiter plate
Description: Septoria tritici (Leaf Blotch):
as §1, with “72 hours.” for “approximately 5-6 days at 620 nm.”

[2] = system: Glomerella lagenarium (syn. Colletotrichum lagenarium); test: Glomerella lagenarium (anthracnose of cucurbits) growth inhibition in nutrient broth, microtiter plate
Description: Glomerella lagenarium (syn. Colletotrichum lagenarium), Anthracnose of Cucurbits:
as §1, with “72 hours” for “approximately 5-6 days”

[3] = Epoxiconazole alone 0.0078125 ppm AI
[4] = Epoxiconazole alone 0.015625 ppm AI
[5] = Epoxiconazole alone 0.03125 ppm AI
[6] = Epoxiconazole alone 0.25 ppm AI
[7] = Azoxystrobin alone 0.015625 ppm AI
[8] = Azoxystrobin alone 0.03125 ppm AI
[9] = Azoxystrobin alone 0.0625 ppm AI
[10] = Fluxapyroxad alone 0.125 ppm AI
[11] = Pyraclostrobin alone 0.00390625 ppm AI
[12] = Pyraclostrobin alone 0.5 ppm AI

Compound: Fc1ccc([C@]2(Cn3cncn3)O[C@H]2c2ccccc2Cl)cc1 (racemic) [Epoxiconazole]
- AVERAGE DEAD IN % [1, 3]: 0%
- AVERAGE DEAD IN % [1, 4]: 0%
- AVERAGE DEAD IN % [1, 5]: 20%
- AVERAGE DEAD IN % (Botrvtis cinerea; [6]): 20%
- AVERAGE DEAD IN % (Botrvtis cinerea; Epoxiconazole alone 0.5 ppm AI): 90%
- AVERAGE DEAD IN % (Botrvtis cinerea; Epoxiconazole alone 1 ppm AI): 100%
- AVERAGE DEAD IN % (Botrvtis cinerea; Epoxiconazole alone 2 ppm AI): 100%
- AVERAGE DEAD IN % Epoxiconazole (Fusarium culmorum; 0.125 PPM AI): 20%
- AVERAGE DEAD IN % Epoxiconazole (Fusarium culmorum; 0.25 PPM AI): 20%
- AVERAGE DEAD IN % Epoxiconazole (Fusarium culmorum; 0.5 PPM AI): 20%
- AVERAGE DEAD IN % Epoxiconazole (Fusarium culmorum; 1 PPM AI): 20%
- AVERAGE DEAD IN % Epoxiconazole (Fusarium culmorum; 2 PPM AI): 20%
- AVERAGE DEAD IN % (Septoria tritici; [3]): 0%
- AVERAGE DEAD IN % (Septoria tritici; [4]): 0%
- AVERAGE DEAD IN % (Septoria tritici; [5]): 20%
- AVERAGE DEAD IN % (Septoria tritici; Epoxiconazole alone 0.0625 ppm AI): 50%
- AVERAGE DEAD IN % (Septoria tritici; Epoxiconazole alone 0.125 ppm AI): 70%
- AVERAGE DEAD IN % (Septoria tritici; [6]): 90%
- AVERAGE DEAD IN % (Septoria tritici; Epoxiconazole alone 0.5 ppm AI): 90%
- AVERAGE DEAD IN % (Septoria tritici; Epoxiconazole alone 1 ppm AI): 90%
- AVERAGE DEAD IN % (Septoria tritici; Epoxiconazole alone 2 ppm AI): 90%
- AVERAGE DEAD IN % [2, 6]: 20%
- AVERAGE DEAD IN % ([2]; Epoxiconazole alone 0.5 ppm AI): 50%
- AVERAGE DEAD IN % ([2]; Epoxiconazole alone 1 ppm AI): 70%
- AVERAGE DEAD IN % ([2]; Epoxiconazole alone 2 ppm AI): 90%

Compound: CO/C=C(/C(=O)OC)c1ccccc1Oc1cc(Oc2ccccc2C#N)ncn1 [Azoxystrobin]
- AVERAGE DEAD IN % ([1]; Azoxystrobin alone 0.0078125 ppm AI): 0%
- AVERAGE DEAD IN % [1, 7]: 20%
- AVERAGE DEAD IN % [1, 8]: 70%
- AVERAGE DEAD IN % [1, 9]: 90%
- AVERAGE DEAD IN % (Septoria tritici; [8]): 20%
- AVERAGE DEAD IN % (Septoria tritici; [9]): 70%
- AVERAGE DEAD IN % [2, 7]: 20%
- AVERAGE DEAD IN % [2, 8]: 50%
- AVERAGE DEAD IN % [2, 9]: 70%
- AVERAGE DEAD IN % ([2]; Azoxystrobin alone 0.125 ppm AI): 90%

Compound: O=C(Nc1ccccc1-c1ccc(Cl)cc1)c1cccnc1Cl [Boscalid]
- AVERAGE DEAD IN % ([1]; Boscalid alone 0.125 ppm AI): 70%
- AVERAGE DEAD IN % ([1]; Boscalid alone 0.25 ppm AI): 100%
- AVERAGE DEAD IN % ([1]; Boscalid alone 0.5 ppm AI): 100%
- AVERAGE DEAD IN % (Botrvtis cinerea; Boscalid alone 0.0625 ppm AI): 20%
- AVERAGE DEAD IN % (Botrvtis cinerea; Boscalid alone 0.125 ppm AI): 20%
- AVERAGE DEAD IN % (Botrvtis cinerea; Boscalid alone 0.25 ppm AI): 20%
- AVERAGE DEAD IN % (Botrvtis cinerea; Boscalid alone 0.5 ppm AI): 50%
- AVERAGE DEAD IN % (Botrvtis cinerea; Boscalid alone 1 ppm AI): 70%
- AVERAGE DEAD IN % (Botrvtis cinerea; Boscalid alone 2 ppm AI): 90%
- AVERAGE DEAD IN % (Septoria tritici; Boscalid alone 0.25 ppm AI): 20%
- AVERAGE DEAD IN % (Septoria tritici; Boscalid alone 0.5 ppm AI): 50%
- AVERAGE DEAD IN % (Septoria tritici; Boscalid alone 1 ppm AI): 90%
- AVERAGE DEAD IN % (Septoria tritici; Boscalid alone 2 ppm AI): 100%

Compound: Cn1cc(C(=O)Nc2ccccc2-c2cc(F)c(F)c(F)c2)c(C(F)F)n1 [Fluxapyroxad]
- AVERAGE DEAD IN % ([1]; Fluxapyroxad alone 0.015625 ppm AI): 0%
- AVERAGE DEAD IN % ([1]; Fluxapyroxad alone 0.03125 ppm AI): 20%
- AVERAGE DEAD IN % ([1]; Fluxapyroxad alone 0.0625 ppm AI): 50%
- AVERAGE DEAD IN % [1, 10]: 90%
- AVERAGE DEAD IN % ([1]; Fluxapyroxad alone 0.25 ppm AI): 100%
- AVERAGE DEAD IN % (Septoria tritici; [10]): 20%
- AVERAGE DEAD IN % (Septoria tritici; Fluxapyroxad alone 0.25 ppm AI): 70%
- AVERAGE DEAD IN % (Septoria tritici; Fluxapyroxad alone 0.5 ppm AI): 100%
- AVERAGE DEAD IN % (Septoria tritici; Fluxapyroxad alone 1 ppm AI): 100%

Compound: Cc1cc(C2=NOC(c3cc(Cl)cc(Cl)c3)(C(F)(F)F)C2)ccc1C(=O)NCC(=O)NCC(F)(F)F (stereo not drawn) [I-A2]
- AVERAGE DEAD IN % ([1]; I-A2 alone 0.1171875 ppm AI): 0%
- AVERAGE DEAD IN % ([1]; I-A2 alone 0.234375 ppm AI): 0%
- AVERAGE DEAD IN % ([1]; I-A2 alone 0.46875 ppm AI): 0%
- AVERAGE DEAD IN % ([1]; I-A2 alone 0.9375 ppm AI): 0%
- AVERAGE DEAD IN % ([1]; I-A2 alone 1.875 ppm AI): 0%
- AVERAGE DEAD IN % ([1]; I-A2 alone 3.75 ppm AI): 0%
- AVERAGE DEAD IN % ([1]; I-A2 alone 7.5 ppm AI): 0%
- AVERAGE DEAD IN % ([1]; I-A2 alone 15 ppm AI): 0%
- AVERAGE DEAD IN % (Botrvtis cinerea; I-A2 alone 0.46875 ppm AI): 0%
- AVERAGE DEAD IN % (Botrvtis cinerea; I-A2 alone 0.9375 ppm AI): 0%
- AVERAGE DEAD IN % (Botrvtis cinerea; I-A2 alone 1.875 ppm AI): 0%
- AVERAGE DEAD IN % (Botrvtis cinerea; I-A2 alone 3.75 ppm AI): 0%
- AVERAGE DEAD IN % (Botrvtis cinerea; I-A2 alone 7.5 ppm AI): 0%
- AVERAGE DEAD IN % (Botrvtis cinerea; I-A2 alone 15 ppm AI): 0%
- AVERAGE DEAD IN % (Botrvtis cinerea; I-A2 alone 30 ppm AI): 0%
- AVERAGE DEAD IN % (Botrvtis cinerea; I-A2 alone 60 ppm AI): 0%
- AVERAGE DEAD IN % COMPOUND I-A2 (Fusarium culmorum; 0.9375 PPM AI): 0%
- AVERAGE DEAD IN % COMPOUND I-A2 (Fusarium culmorum; 1.875 PPM AI): 0%
- AVERAGE DEAD IN % COMPOUND I-A2 (Fusarium culmorum; 3.75 PPM AI): 0%
- AVERAGE DEAD IN % COMPOUND I-A2 (Fusarium culmorum; 7.5 PPM AI): 0%
- AVERAGE DEAD IN % COMPOUND I-A2 (Fusarium culmorum; 15 PPM AI): 0%
- AVERAGE DEAD IN % COMPOUND I-A2 (Fusarium culmorum; 30 PPM AI): 0%
- AVERAGE DEAD IN % COMPOUND I-A2 (Fusarium culmorum; 60 PPM AI): 0%
- AVERAGE DEAD IN % (Fusarium culmorum; I-A2 alone 3.75 ppm AI): 0%
- AVERAGE DEAD IN % (Fusarium culmorum; I-A2 alone 7.5 ppm AI): 0%
- AVERAGE DEAD IN % (Fusarium culmorum; I-A2 alone 15 ppm AI): 0%
- AVERAGE DEAD IN % (Fusarium culmorum; I-A2 alone 30 ppm AI): 0%
- AVERAGE DEAD IN % (Fusarium culmorum; I-A2 alone 60 ppm AI): 0%
- AVERAGE DEAD IN % (Septoria tritici; I-A2 alone 0.1171875 ppm AI): 0%
- AVERAGE DEAD IN % (Septoria tritici; I-A2 alone 0.234375 ppm AI): 0%
- AVERAGE DEAD IN % (Septoria tritici; I-A2 alone 0.46875 ppm AI): 0%
- AVERAGE DEAD IN % (Septoria tritici; I-A2 alone 0.9375 ppm AI): 0%
- AVERAGE DEAD IN % (Septoria tritici; I-A2 alone 1.875 ppm AI): 0%
- AVERAGE DEAD IN % (Septoria tritici; I-A2 alone 3.75 ppm AI): 0%
- AVERAGE DEAD IN % (Septoria tritici; I-A2 alone 7.5 ppm AI): 0%
- AVERAGE DEAD IN % (Septoria tritici; I-A2 alone 15 ppm AI): 0%
- AVERAGE DEAD IN % (Septoria tritici; I-A2 alone 30 ppm AI): 0%
- AVERAGE DEAD IN % (Septoria tritici; I-A2 alone 60 ppm AI): 0%
- AVERAGE DEAD IN % ([2]; I-A2 alone 0.1171875 ppm AI): 0%
- AVERAGE DEAD IN % ([2]; I-A2 alone 0.234375 ppm AI): 0%
- AVERAGE DEAD IN % ([2]; I-A2 alone 0.46875 ppm AI): 0%
- AVERAGE DEAD IN % ([2]; I-A2 alone 0.9375 ppm AI): 0%
- AVERAGE DEAD IN % ([2]; I-A2 alone 1.875 ppm AI): 0%
- AVERAGE DEAD IN % ([2]; I-A2 alone 3.75 ppm AI): 0%
- AVERAGE DEAD IN % ([2]; I-A2 alone 7.5 ppm AI): 0%
- AVERAGE DEAD IN % ([2]; I-A2 alone 15 ppm AI): 0%
- AVERAGE DEAD IN % ([2]; I-A2 alone 30 ppm AI): 0%
- AVERAGE DEAD IN % ([2]; I-A2 alone 60 ppm AI): 0%

Compound: COC(=O)N(OC)c1ccccc1COc1ccn(-c2ccc(Cl)cc2)n1 [Pyraclostrobin]
- AVERAGE DEAD IN % [1, 11]: 90%
- AVERAGE DEAD IN % (Botrvtis cinerea; Pyraclostrobin alone 0.125 ppm AI): 20%
- AVERAGE DEAD IN % (Botrvtis cinerea; Pyraclostrobin alone 0.25 ppm AI): 20%
- AVERAGE DEAD IN % (Botrvtis cinerea; [12]): 20%
- AVERAGE DEAD IN % (Botrvtis cinerea; Pyraclostrobin alone 1 ppm AI): 50%
- AVERAGE DEAD IN % (Botrvtis cinerea; Pyraclostrobin alone 2 ppm AI): 70%
- AVERAGE DEAD IN % (Fusarium culmorum; [12]): 20%
- AVERAGE DEAD IN % (Fusarium culmorum; Pyraclostrobin alone 1 ppm AI): 20%
- AVERAGE DEAD IN % (Fusarium culmorum; Pyraclostrobin alone 2 ppm AI): 20%
- AVERAGE DEAD IN % (Septoria tritici; [11]): 90%
- AVERAGE DEAD IN % [2, 11]: 70%
- AVERAGE DEAD IN % ([2]; Pyraclostrobin alone 0.0078125 ppm AI): 90%
